The source of these data is patent US20230091908A1, “FLUORENE DERIVATIVE, METHOD FOR PRODUCING SAME, AND APPLICATION OF SAME” (Osaka Gas Chemicals Co., Ltd., priority 2019, published 2023).

SMILES strings stand for the structures.

A short description of series [1]: Solubility in various solvents. Format: physicochemical. More on the design: key to Solubility: A: Soluble; B: Some soluble, but turbid; C: Insoluble. To be noted: for Solubility: stirred at 50° C. for 30 minutes. Here is the method: The sample 0.3 g was weighed in a sample bottle, the solvent was added by 0.7 g (condition 1: solid content of 30% by mass) or 1.0 g (condition 2: solid content of 23% by mass), and each of the obtained mixed solutions was stirred at a temperature of 50° C. for 30 minutes by using a bioshaker (manufactured by TAITEC CORPORATION, “BR-43FH”). Each of the mixed solutions after stirring was evaluated according to the following criteria. The used solvents were methyl ethyl ketone (MEK), methyl isobuthyl ketone (MIBK), ethyl acetate, propylene glycol monomethyl ether acetate (PGMEA), toluene, dimethylformamide (DMF), or cyclohexanone.
B: Some soluble, but turbid

Series [2] is described as follows: 5% mass reduction temperature (TG-DTA). Type of series: physicochemical. The protocol: (5% Mass Reduction Temperature)
The temperature, at which the mass of the sample is reduced by 5% by mass was measured using a Thermogravimeter-Differential Thermal Analyzer (TG-DTA) (manufactured by SII NanoTechnology Inc., “TG/DTA6200”) in an atmosphere of a nitrogen gas, at a heating rate (programming rate) of 10° C./min. The sample (cured product) was prepared as follows.
That is, 3 parts by mass of Irgacure 184 (manufactured by BASF Japan Ltd.) as a photopolymerization initiator was added to 100 parts by mass of the total amount of the acrylate compound (polymerization component) shown in Table 1 or 3 weighed in a brown bottle, and the mixture was heated to 120° C. for dissolution to obtain a curable composition. An UV irradiation (500 mJ/cm^2) was repeated 4 times on the obtained curable composition to prepare the cured product.

As a reminder, the melting point is the temperature, or range, at which the solid turns liquid. For the compound `C=CC(=O)OCCCC1(CCCOC(=O)C=C)c2cc(-c3ccc4ccccc4c3)ccc2-c2ccc(-c3ccc4ccccc4c3)cc21` [DNPOA, 9,9-bis(3-acryloyloxypropyl)-2,7-di(2-naphthyl)fluorene], the melting point came out at 120 °C. The Solubility result in series [1] (Cyclohexanone, solid content of 30% by mass) is reported as “A”. In addition, in series [1] (DMF, solid content of 30% by mass), the Solubility result is “A”. Moreover, the Solubility result in series [1] (Ethyl acetate, solid content of 30% by mass) is reported as “A”. Besides, the Solubility entry in series [1] (MEK, solid content of 30% by mass) was “A”. Also, the Solubility result in series [1] (MIBK, solid content of 30% by mass) is recorded as “A”. The Solubility result in series [1] (PGMEA, solid content of 23% by mass) is on record as “A”. Besides, the Solubility entry in series [1] (PGMEA, solid content of 30% by mass) is “B”. Besides, the Solubility result in series [1] (Toluene, solid content of 30% by mass) is listed as “A”. Besides, the “Solubility in various solvents (summary in words)” value in series [1] (summary of Table 2) is recorded as “high solubility in various solvents”. Moreover, the “5% mass reduction temperature” value in series [2] (cured product of the compound (UV cured, Irgacure 184), nitrogen, 10° C./min) amounted to 382 °C.

On to `COC(=O)CCC1(CCC(=O)OC)c2cc(-c3ccc4ccccc4c3)ccc2-c2ccc(-c3ccc4ccccc4c3)cc21` [DNFDP-m, 9,9-bis(2-methoxycarbonylethyl)-2,7-di(2-naphthyl)fluorene], for which, in series [2] (compound as obtained), the “5% mass reduction temperature” value is 390 °C.
